Columns and labels:
[1] = test system: scopolamine-induced spatial memory disorder; assay: Ameliorating effect on spatial memory disorder induced by scopolamine (Y-maze, alternation behavior); assay type: in vivo; conditions: Std-ddY male mice, oral, 1 hour before scopolamine 0.6 mg/kg s.c., 5% significance level
Description: Experiment 1: Ameliorating Effect on Spatial Memory Disorder Induced by Scopolamine. The spatial memory test using Y-maze apparatus is a test to utilize the behavioral property of animals to enter into a new arm, avoiding the arm that they entered into just before (alternation behavior). This method is often used in order to study spatial working memory. This experiment was carried out according to the method of Itoh, J., et al. [Eur. J. Pharmacol., 236, 341-345 (1993)]. Std-ddY male mice weighing 25-30 g (8 mice per one group) were used in the experiment. A solution of scopolamine in physiological saline (concentration: 0.06 mg/ml) was subcutaneously administered to mice in a volume of 0.1 ml/10 g of body weight, i.e., 0.6 mg/kg. Mice in the test compound group were orally treated with the test compound suspended in 0.5% tragacanth solution in a volume of 0.1 ml/10 g of body weight 1 hour before scopolamine administration, while animals in the amnesia control group and the vehicle control group received a 0.5% tragacanth solution in the same manner as above. However, the vehicle control group was injected with physiological saline instead of scopolamine. Thirty minutes after administration of scopolamine, the mice were placed at the end of the arm A of the Y-maze apparatus which was composed of three black acrylic trapezoid arms (bottom width: 3 cm, height of side wall: 12 cm, width of opened ceiling: 10 cm, length: 40 cm), wherein said three arms were connected at the one end of each arm to form Y-shape and another ends were closed, and the three arms were differentiated by the names as A, B and C respectively, and allowed to search freely the maze for 8 minutes. When the mouse was checked to enter into an arm at the length of not less than 10 cm from the entrance of the arm, the name of the arm (A, B or C) was recorded. It could be defined as a correct choice when the mouse selected the different three arms sequentially, and the number of alternation behavior i.e., the number of correct choices was counted. In the case that the total number of arm entries was less than 10 [the maximum number of alternation behavior (the number obtained by subtracting 2 from the total number of arm entries) is less than 8], the resulting data were not used and the retest was carried out instead, because the ability of learning could not occasionally reflect the alternation behavior. For the final data gotten, the ratio of the number of the alternation behavior to that of the entries (obtained by subtracting 2 from the total number of arm entries) was estimated as the rate of alternation behavior. In statistical analysis, the rate of alternation behavior in the amnesia control group was compared with that in the vehicle control group by the nonparametric Wilcoxon rank sum test and it was checked if a significant amnesia was induced in the amnesia control group. Next, the efficacy of the test compounds was evaluated in comparison between the amnesia control group and the test compound group by the nonparametric Dunnett multiple comparison test. The statistical calculation was carried out with SAS system Version 6.12 (SAS Institute Japan Ltd.).

[2] = test system: scopolamine-induced object memory impairment; assay: Ameliorating effect on object memory disorder induced by scopolamine (object recognition test); assay type: in vivo; conditions: Std-ddY male mice, oral; for MED (minimum effective dose), significant difference in the discrimination index, scopolamine-induced object memory impairment: 30 minutes before scopolamine 0.4 mg/kg s.c., 5% significance level
Description: Experiment 2: Ameliorating Effect on Object Memory Disorder Induced by Scopolamine. The object recognition test is a test method using the property which animals like to search a novel object. This method is often used in order to study the memorization and retention of episodic memory. This experiment was carried out according to the partially modified method of Bartolini, L. et al. [Pharmacol. Biochem. Behav., 53, 277-283 (1996)]. Std-ddY male mice weighing 25-30 g (six mice per one group) were used in the experiment. Scopolamine dissolved in physiological saline (concentration: 0.04 mg/ml) was subcutaneously administered to mice in a volume of 0.1 ml per 10 g of body weight, i.e., 0.4 mg/kg. For the test compound group, the test compound suspended in 0.5% tragacanth solution was orally administered in a volume of 0.1 ml per 10 g of body weight, 30 minutes before scopolamine administration, and for the amnesia control group and the vehicle control group, a 0.5% tragacanth solution was administered in the same manner as above. However, for the vehicle control group, physiological saline was administered instead of scopolamine. Thirty minutes after the administration of scopolamine, the first trial was carried out for 5 minutes, and 1 hour after the first trial, the second trial was carried out for 5 minutes. In the first trial, the two same-shaped objects [red frustum-formed funnel adaptors made of silicon (bottom diameter: 6.1 cm, ceiling diameter: 4.5 cm, height: 3.5 cm)] are put on the two adjacent corners of the test box made of brown acrylic (length: 22.5 cm, width: 24.5 cm, height: 11 cm), and the time that the mouse explored each object was measured. In the second trial, the object (familiar: F) which the exploration time was longer in the first trial was retained, while another object in the first trial was replaced by the novel object [novel: N, red diver ring (outside diameter: 7.5 cm, inside diameter: 2.5 cm, thickness: 2.0 cm)] at the same position, and then the time for exploring each object was measured. The rate of object memory impairment was obtained from the formula: (N−F)/(N+F) as a discrimination index, and the comparison between the vehicle control group and the amnesia control group, and between the amnesia control group and the test compound group was carried out on the basis of said discrimination index. In statistical analysis, the comparison between the vehicle control group and the amnesia control group was carried out by the Student's t test and it was checked whether a significant amnesia was induced. The efficacy of the test compounds was evaluated on the basis of comparison between the amnesia control group and the test compound group by the parametric Dunnett's multiple comparison test. […]

[3] = test system: MK-801-induced object location memory impairment; assay: Ameliorating effect on the impairment of object location memory induced by MK-801 (object location memory test); assay type: in vivo, mice; conditions: oral; for effective dose relative to the dose of FGIN-1-27: MK-801-induced object location memory impairment, mice; for MED (minimum effective dose), significant ameliorating effect on MK-801-induced object location memory impairment: Std-ddY male mice, 30 minutes before MK-801 0.05 mg/kg s.c., 5% significance level
Excerpt: Experiment 3: Ameliorating Effect on the Impairment of Object Location Memory Induced by MK-801.
The object location memory test is a test method using the property which animals like to search a novelty caused by the change of an object location. This method is often used in order to study the ability of object location memory. This method is closely related with hypofunction of glutamatergic system and cause the location memory impairment selectively without the impairment of object memory which is induced by hypofunction of cholinergic system.
This experiment was carried out according to the partially modified method of Sophie L. Dix, et al. [Behav. Brain Res., 99, 191-200 (1999)].
Std-ddY male mice weighing 25-30 g (six mice per one group) were used in the experiment. A solution of MK-801 in physiological saline (concentration: 0.005 mg/ml) was subcutaneously administered in a volume of 0.1 ml per 10 g of body weight, i.e., 0.05 mg/kg. For the test compound group, the test compound suspended in 0.5% tragacanth solution was orally administered in a volume of 0.1 ml per 10 g of body weight, 30 minutes before MK-801 administration, and for the amnesia control group and the vehicle control group, a 0.5% tragacanth solution was administered in the same manner as above. However, for the vehicle control group, physiological saline was administered instead of MK-801. Thirty minutes after the administration of MK-801, the first trial was carried out for 5 minutes, and 1 hour after the first trial, the second trial was carried out for 5 minutes. In the first trial, the two same-shaped objects [red frustum-formed funnel adaptors made of silicon (bottom diameter: 6.1 cm, ceiling diameter: 4.5 cm, height: 3.5 cm)] were respectively put in the center and one of the corners of the test box made of brown acrylic (length: 22.5 cm, width 24.5 cm, height: 11 cm), and the time which the mouse explored each object was measured. In the second trial, the object (displaced object: DO) which was located in the center in the first trial was displaced in the opposite corner to another object (non displaced object: NDO), and then the time which the mouse explored each object was measured. The difference in the exploration time of DO and NDO respectively between the first trial and the second trial was calculated, and the comparison between the vehicle control group and the amnesia control group, and between the amnesia control group and the test compound group was carried out.
In statistical analysis, the comparison between the vehicle control group and the amnesia control group was carried out by the Student's t test and it was confirmed whether a significant object location memory impairment was induced. The efficacy of the test compounds was evaluated by comparing the amnesia control group with the test compound group using the parametric Dunnett's multiple comparison test. The statistical calculation was carried out with SAS system Version 6.12 (SAS Institute Japan Ltd.).
Besides, in the vehicle control group, the exploration time for NDO in the second trial decreased and the exploration time for DO was obviously longer than that for NDO. […] On the other hand, in the amnesia control group with MK-801, both exploration time for NDO and DO decreased remarkably.

Std-ddY male mice = assay: Acute toxicity (Experiment 4); assay type: in vivo; conditions: oral 2000 mg/kg, observed for 7 days
Description: Experiment 4: Acute Toxicity
The experiment on the test compound C was carried out using Std-ddY male mice weighing 25-30 g (10 mice per each group).

[4] = test system: animal models of learning impairment; conditions: active avoidance test, radial-arm maze test, water maze test; cited from earlier work

Molecule	MED (minimum effective dose), significant ameliorating effect on scopolamine-induced spatial memory disorder in the rate of alternation behavior [1] [mg/kg]	MED (minimum effective dose), significant difference in the discrimination index, scopolamine-induced object memory impairment [2] [mg/kg]	MED (minimum effective dose), significant ameliorating effect on MK-801-induced object location memory impairment [3] [mg/kg]	ameliorating effects in animal models of learning impairment [4]	other results
CCN(Cc1ccccc1)C(=O)Cn1c(=O)n(CC)c2cnc(-c3ccccc3)nc21 [Test Compound D, N-benzyl-7-ethyl-N-ethyl-7,8-dihydro-8-oxo-2-phenyl-9H-purin-9-acetamide]	3	–	–	–	–
CCN(C(=O)Cn1c(=O)n(C)c2nc(-c3ccccc3)ncc21)c1ccccc1 [Test Compound C, N-ethyl-8,9-dihydro-9-methyl-8-oxo-2-phenyl-N-phenyl-7H-purin-7-acetamide]	0.01	0.01	0.1	–	effective dose relative to the dose of FGIN-1-27 [3]: less than 1/100; lethality (Std-ddY male mice): no mouse treated with the test compound C died
CC(=O)[C@H]1CC[C@H]2[C@@H]3CC[C@H]4C[C@H](O)CC[C@]4(C)[C@H]3CC[C@]12C [allopregnanolone]	–	–	–	weak ameliorating effects	–
pregnenolone sulfate	–	–	–	weak ameliorating effects	–
COc1ccc(N(C)C(=O)Cn2c(=O)n(C)c3cnc(-c4ccccc4)nc32)cc1 [Test Compound A, N-(4-methoxyphenyl)-7,8-dihydro-7-methyl-N-methyl-8-oxo-2-phenyl-9H-purin-9-acetamide]	3	–	–	–	–
CCN(Cc1ccccc1)C(=O)Cn1c(=O)n(C)c2cnc(-c3ccccc3)nc21 [Test Compound E, N-benzyl-N-ethyl-7,8-dihydro-7-methyl-8-oxo-2-phenyl-9H-purin-9-acetamide]	1	0.1	0.01	–	effective dose relative to the dose of FGIN-1-27 [3]: less than 1/100
CCCCCCN(CCCCCC)C(=O)Cc1c(-c2ccc(F)cc2)[nH]c2ccccc12 [FGIN-1-27, N,N-di-n-hexyl-2-(4-fluorophenyl)indol-3-acetamide, reference compound]	10	>30	10	weak ameliorating effects	ameliorating effect on scopolamine-induced object memory impairment at a stated dose ([2]; dose of 30 mg/kg): no significant ameliorating effect
CCN(Cc1ccccc1)C(=O)Cn1c(=O)n(C)c2nc(-c3ccccc3)ncc21 [Test Compound B, N-benzyl-N-ethyl-8,9-dihydro-9-methyl-8-oxo-2-phenyl-7H-purin-7-acetamide]	3	–	–	–	–

From US6962921B2, “Dementia remedies containing 2-aryl-8-oxodihydropurine derivatives as the active ingredient” (Dainippon Pharmaceutical Co., Ltd., priority 2000, dated 2005)
